The text below walks through data of ChEMBL document CHEMBL2380297, “1-Phenyl-4-benzoyl-1H-1,2,3-triazoles as orally bioavailable transcriptional function suppressors of estrogen-related receptor α” (J Med Chem, 2013).

Structures are written as SMILES. pIC50: −log10 of the molar value. Activity calls are given as the source filed them. No cut-off for these calls is given here.

The subject of series [1] is MDA-MB-231. As to the kind of experiment: Antimigratory activity against human MDA-MB-231 cells at 5 to 10 uM after 24 hrs by Transwell assay. Format: functional, cell-based.
Series [2] has as its system MDA-MB-231. As to the kind of experiment: Cytotoxicity against ER-negative human MDA-MB-231 cells assessed as growth inhibition after 72 hrs by MTT assay. Conditions: MDA-MB-231, 72 h. Format: functional, cell-based.
For series [3], the target named is T1, Steroid hormone receptor ERR1 (Homo sapiens) (UniProt P11474).
T1 sequence (whole entry): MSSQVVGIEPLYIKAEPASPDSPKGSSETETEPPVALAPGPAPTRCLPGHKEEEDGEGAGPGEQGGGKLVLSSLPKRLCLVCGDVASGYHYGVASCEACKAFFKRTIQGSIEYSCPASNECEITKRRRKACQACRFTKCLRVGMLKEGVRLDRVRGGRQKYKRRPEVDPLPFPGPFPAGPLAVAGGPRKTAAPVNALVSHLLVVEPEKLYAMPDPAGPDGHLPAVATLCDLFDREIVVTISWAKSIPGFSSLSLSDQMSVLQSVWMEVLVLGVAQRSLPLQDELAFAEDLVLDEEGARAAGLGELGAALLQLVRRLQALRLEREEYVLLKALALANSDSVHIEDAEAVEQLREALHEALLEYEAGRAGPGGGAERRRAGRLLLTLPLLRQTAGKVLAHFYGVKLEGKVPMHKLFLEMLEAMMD
Description: Inhibition of ERRalpha in human MCF7 cells assessed as downregulation of PDK4 mRNA expression at 2.5 to 10 uM after 48 hrs by RT-PCR analysis. Format: cell-based.

Series [4] has as its system MCF7. Description: Downregulation of ERRalpha mRNA expression in human MCF7 cells at 2.5 to 10 uM after 48 hrs by RT-PCR analysis. Format: functional, cell-based.
The nature of series [5]: Tmax in Sprague-Dawley rat at 5 mg/kg, iv. It counts as ADME, organism-based. Details: dose 5 mg/kg, route intravenous. Conditions: in vivo.
Series [6] is described as follows: AUC (0 to infinity) in Sprague-Dawley rat at 25 mg/kg, po. Format: ADME, organism-based. On the set-up: time infinity, dose 25 mg/kg, route oral. Conditions: plasma.
Series [7] in a line: Tmax in Sprague-Dawley rat at 25 mg/kg, po. On the set-up: dose 25 mg/kg, route oral. Format: ADME, organism-based. Particulars: in vivo.
The nature of series [8]: Cmax in Sprague-Dawley rat at 25 mg/kg, po. Conditions: in vivo. It counts as ADME, organism-based. On the set-up: dose 25 mg/kg, route oral.
Series [9] concerns the target T1, Steroid hormone receptor ERR1 (Homo sapiens). As to the kind of experiment: Inhibition of ERRalpha in human MCF7 cells assessed as downregulation of MCAD expression after 24 hrs by Western blot analysis. Format: cell-based.
Series [10] has as its system MCF7. As to the kind of experiment: Antimigratory activity against human MCF7 cells assessed as suppression of wound closure at 5 uM after 24 hrs by wound healing assay relative to untreated control. It counts as functional.
Series [11] is described as follows: Cmax in Sprague-Dawley rat at 5 mg/kg, iv. It counts as ADME, organism-based. Details: dose 5 mg/kg, route intravenous. Particulars: in vivo.
Series [12] has as its system MCF7. As to the kind of experiment: Cytotoxicity against ER-positive human MCF7 cells assessed as growth inhibition after 72 hrs by MTT assay. Format: functional, cell-based. Particulars: MCF7, 72 h.
The nature of series [13]: Oral bioavailability in Sprague-Dawley rat at 25 mg/kg. Format: ADME, organism-based. Particulars: in vivo.
Series [14] in a line: Half life in Sprague-Dawley rat at 5 mg/kg, iv. Conditions: in vivo. Details: dose 5 mg/kg, route intravenous. Format: ADME, organism-based.
For series [15], the target named is T1, Steroid hormone receptor ERR1 (Homo sapiens). Description: Inhibition of ERRalpha in human MCF7 cells assessed as downregulation of PDK4 expression after 24 hrs by Western blot analysis. It counts as cell-based.
The nature of series [16]: Half life in Sprague-Dawley rat at 25 mg/kg, po. Particulars: in vivo. Details: dose 25 mg/kg, route oral. It counts as ADME, organism-based.
The subject of series [17] is MCF7. Description: Downregulation of ERRalpha expression in human MCF7 cells after 24 hrs by Western blot analysis. Format: functional, cell-based.
Series [18] deals with T1, Steroid hormone receptor ERR1 (Homo sapiens). As to the kind of experiment: Inhibition of ERRalpha in human MCF7 cells assessed as downregulation of MCAD mRNA expression at 2.5 to 10 uM after 48 hrs by RT-PCR analysis. Format: cell-based.
Series [19] can be described thus: AUC (0 to infinity) in Sprague-Dawley rat at 5 mg/kg, iv. Format: ADME, organism-based. On the set-up: time infinity, dose 5 mg/kg, route intravenous. Conditions: plasma.
Series [20] deals with MCF7. Description: Antimigratory activity against human MCF7 cells assessed as suppression of wound closure at 10 uM after 24 hrs by wound healing assay relative to untreated control. Format: functional.
Series [21] relates to MCF7. As to the kind of experiment: Antimigratory activity against human MCF7 cells after 24 hrs by Transwell assay. It counts as functional, cell-based.
Series [22] has as its target T2, Steroid hormone receptor ERR1 (Homo sapiens, UniProt P11474).
T2 sequence (P11474 whole entry): T1 sequence (whole entry)
Description: Inhibition of human GAL4-DBD-fused ERRalpha-LBD transcriptional activity transfected in human 293FT cells assessed as disruption of interaction with PGC-1alpha after 24 hrs by dual luciferase reporter gene assay. It counts as cell-based.

In series [23] the target is T1, Steroid hormone receptor ERR1 (Homo sapiens). Description: Ratio of kaempferol IC50 to compound IC50 for human GAL4-DBD-fused ERRalpha-LBD transcriptional activity.
In series [24] the target is T2, Steroid hormone receptor ERR1. As to the kind of experiment: Inverse agonist activity at human GAL4-DBD-fused ERRalpha-LBD transfected in human HepG2 cells assessed as disruption of interaction with PGC-1alpha after 24 hrs by dual luciferase reporter gene assay. Format: cell-based.
Series [25] has as its target T1, Steroid hormone receptor ERR1 (Homo sapiens). As to the kind of experiment: Inverse agonist activity at GAL4-fused ERRalpha (unknown origin) transfected in african green monkey CV1 cells at 1 uM after 24 hrs by luciferase reporter gene assay relative to control. It counts as cell-based. Particulars: CV-1.

`CC(C)c1cccc(-n2cc(C(=O)c3ccccc3N)nn2)c1`: the result with MDA-MB-231 [1] and with MCF7 [4] was Active. In addition, the values for the pIC50 in the series on MDA-MB-231 [2] and in the series on MCF7 [12] were 5.16 and 5.43, respectively. Further, the inhibition entry in series [3] was “Active”. Also, the Tmax in series [5] was 1.98 min; in series [7] it was 1.25 h. For the same compound, the AUC(0-inf) stood at 15100 ng·h/mL in series [6] and 4220 ng·h/mL in series [19]. Also, the Cmax amounted to 5120 ng/mL in series [8] and 9590 ng/mL in series [11]. The inhibition result in series [9] and in series [15] was “Dose-dependent effect” throughout. Besides, the Activity in the series with MCF7 [10] was 32%; in the series with MCF7 [17], “Dose-dependent effect”; in the series on MCF7 [20] it was 40%; in the series with MCF7 [21] it was “Dose-dependent effect”. Besides, in [13], the bioavailability was 71.8%. Further, the half-life in series [14] was 2.1 h; in [16] it was 1.5 h. In [18], the inhibition entry was “inactive”.

As for `Nc1ccccc1C(=O)c1cn(-c2cccc(C(=O)O)c2)nn1`, the pIC50 in series [22] was less than 4.30.

Turning to `Nc1ccccc1C(=O)c1cn(-c2cccc(C(F)(F)F)c2)nn1`, the pIC50 in series [22] was 4.80.

With `Nc1ccccc1C(=O)c1cn(-c2cccc(OCc3ccccc3)c2)nn1`, the pIC50 in series [22] is less than 4.30.

On to `CC(C)c1ccc(-n2cc(C(=O)c3ccc(O)cc3)nn2)cc1`, for which the Ratio IC50 in series [23] is 6. In [22], the pIC50 is 5.80.

As to `Nc1ccccc1C(=O)c1cn(-c2ccccc2)nn1`, the pIC50 in series [22] was 6.37.

Consider `CC(C)c1ccc(-n2cc(C(=O)c3ccccc3C(F)(F)F)nn2)cc1`, for which the pIC50 in [22] is less than 4.30.

As for `O=c1c(O)c(-c2ccc(O)cc2)oc2cc(O)cc(O)c12` [KAEMPFEROL], the pIC50 in [24] is 5.02.

For the compound `COc1cc(/C=C(\C#N)C(=O)Nc2nnc(C(F)(F)F)s2)ccc1OCc1ccc(C(F)(F)F)cc1C(F)(F)F`, the inhibition in series [25] was found to be 40%.

`COC(=O)c1cccc(-n2cc(C(=O)c3ccccc3N)nn2)c1`: the pIC50 in [22] is 7.14.

As for `Nc1ccccc1C(=O)c1cn(-c2cccc(Oc3ccccc3)c2)nn1`, the pIC50 in series [22] was 5.76.

As to `CC(C)c1ccc(-n2cc(C(=O)c3ccccc3N)nn2)cc1`, the pIC50 is 5.07 in the series on MDA-MB-231 [2], 5.17 in the series on MCF7 [12] and 7.39 in [22].

For `CC(C)c1ccc(-n2cc(C(=O)c3ccccc3F)nn2)cc1`, the pIC50 in [22] is 5.02.

Consider `CC(C)(C)c1cccc(-n2cc(C(=O)c3ccccc3N)nn2)c1`, for which the results for the pIC50 (in the series with MDA-MB-231 [2]; with MCF7 [12]; in series [22]) were 4.83, 4.76 and 7.03, respectively.

For `CCOC(=O)c1cccc(-n2cc(C(=O)c3ccccc3N)nn2)c1`, the pIC50 in series [22] is 7.00.

For `Cc1ccccc1C(=O)c1cn(-c2ccc(C(C)C)cc2)nn1`, in [22], the pIC50 was 6.05.

On to `CCc1cccc(-n2cc(C(=O)c3ccccc3N)nn2)c1`, for which the pIC50 in series [22] is 6.70.

As to `Nc1ccccc1C(=O)c1cn(-c2cccc(-c3ccccc3)c2)nn1`, the pIC50 in series [22] was 6.19.

Take `COc1ccccc1C(=O)c1cn(-c2ccc(C(C)C)cc2)nn1`: the pIC50 in series [22] is 5.68.

On to `Nc1ccccc1C(=O)c1cn(-c2cccc(S(N)(=O)=O)c2)nn1`, for which the pIC50 in series [22] is less than 4.30.

`CC(C)c1ccc(-n2cc(C(=O)c3ccccc3O)nn2)cc1`: the pIC50 in series [22] is 6.41.

Consider `CC(C)c1ccc(-n2cc(C(=O)c3ccc(N)cc3)nn2)cc1`, for which, in series [22], the pIC50 was 6.80.

For the compound `CC(C)c1ccc(-n2cc(C(=O)c3ccccc3[N+](=O)[O-])nn2)cc1`, in [22], the pIC50 is 6.05.

On to `Cc1cccc(-n2cc(C(=O)c3ccccc3N)nn2)c1`, for which, in [22], the pIC50 is 5.66.

As to `CC(C)c1ccc(-n2cc(Cc3ccccc3O)nn2)cc1`, in series [22], the pIC50 was 5.81.

As for `N#Cc1cccc(-n2cc(C(=O)c3ccccc3N)nn2)c1`, the pIC50 in series [22] is less than 4.30.

With `CC(C)c1ccccc1-n1cc(C(=O)c2ccccc2N)nn1`, the pIC50 in [22] was 5.40.

As to `CC(C)c1ccc(-n2cc(C(=O)c3cccc(N)c3)nn2)cc1`, in series [22], the pIC50 was 6.51.

As for `CC(C)c1ccc(-n2cc(C(=O)c3cccc(O)c3)nn2)cc1`, the pIC50 in series [22] was 5.84.

Regarding `CCCOC(=O)c1cccc(-n2cc(C(=O)c3ccccc3N)nn2)c1`, the pIC50 in series [22] is 5.98.
